Experiments:
MCF-7 cells = experiment: MTT cytotoxicity assay on MCF-7 cells; type: cell-based; conditions: Homo sapiens, MCF7; for viability at 1.25 µM: MCF-7, 1.25 µM; for viability at 1.25 µM / viability at 2.5 µM / viability at 5 µM / viability at 10 µM / viability at 20 µM / viability at 40 µM / viability at 80 µM / viability at 160 µM: Table S2; for viability at 2.5 µM: MCF-7, 2.5 µM; for viability at 5 µM: MCF-7, 5 µM; for viability at 10 µM: MCF-7, 10 µM; for viability at 20 µM: MCF-7, 20 µM; for viability at 40 µM: MCF-7, 40 µM; for viability at 80 µM: MCF-7, 80 µM; for viability at 160 µM: MCF-7, 160 µM; for IC50: MTT, 24 h treatment, mean of three experiments ± SEM, read-out: IC50 (µM) MCF-7
Description: (§1) Cytotoxic activity of the synthesized compounds was evaluated against HepG-2 and MCF-7 cancer cell lines using the MTT assay. The tested cell lines were obtained from the American Type Culture Collection (ATCC, […], USA) through the Tissue Culture Unit, The Egyptian Organization for Biological Products and Vaccines (Vacsera, Giza, Egypt). Indirubin, chemicals, and solvents were purchased from Sigma-Aldrich (St. Louis, MO, USA). The cells were grown on RPMI-1640 medium supplemented with 10% inactivated fetal calf serum and 50 µg/mL gentamycin. The cells were maintained at 37 °C in a humidified atmosphere with 5% CO2 and were sub-cultured two to three times per week. For antitumor assays, the tumor cell lines were suspended in the medium at concentration 5 × 10^4 cell/well in Corning® 96-well tissue culture plates (Corning, Corning, NY, USA), then incubated for 24 h. The tested molecules were then added to 96-well plates (six replicates) to achieve six concentrations for each compound. Six vehicle controls with media or 0.5% DMSO were run for each 96-well plate as a control. After incubating for 24 h, the numbers of viable cells were determined by the MTT test. Briefly, the media was removed from the 96 well plate and replaced with 100 µL of fresh culture RPMI 1640 medium without phenol red then 10 µL of the 12 mM MTT stock solution (5 mg of MTT in 1 mL of PBS) to each well including the untreated controls. The 96-well plates were then incubated at 37 °C and 5% CO2 for 4 h. An 85 µL aliquot of the media was removed from the wells, and 50 µL of DMSO was added to each well, mixed thoroughly with the pipette, and incubated at 37 °C for 10 min. Then, the optical density was measured at 590 nm with the microplate reader (SunRise, TECAN, Inc., Morrisville, NC, USA) to determine the number of viable cells, and the percentage of viability was calculated as […], where ODt is the mean optical density of wells treated with the tested sample and ODc is the mean optical density of untreated cells. The relation between surviving cells and drug concentration was plotted to obtain the survival curve of each tumor cell line after treatment with the specified compound. […] Each concentration was repeated four times.

HepG-2 cells = experiment: MTT cytotoxicity assay on HepG-2 cells; type: cell-based, human; conditions: Homo sapiens, HepG2; for viability at 1.25 µM: HepG-2, 1.25 µM; for viability at 1.25 µM / viability at 2.5 µM / viability at 5 µM / viability at 10 µM / viability at 20 µM / viability at 40 µM / viability at 80 µM / viability at 160 µM: Table S1; for viability at 2.5 µM: HepG-2, 2.5 µM; for viability at 5 µM: HepG-2, 5 µM; for viability at 10 µM: HepG-2, 10 µM; for viability at 20 µM: HepG-2, 20 µM; for viability at 40 µM: HepG-2, 40 µM; for viability at 80 µM: HepG-2, 80 µM; for viability at 160 µM: HepG-2, 160 µM; for IC50: MTT, 24 h treatment, mean of three experiments ± SEM
Description: as §1

EGFR = molecular target: T1, EGFR (Homo sapiens, UniProt P00533); experiment: Kinase-Glo Plus luminescence kinase inhibition assay, EGFR; type: biochemical; conditions: 10 µM ATP, 30 °C, 40 min; mean ± SEM
T1 construct: purchased BPS Bioscience 40721
T1 sequence (P00533 25-1210): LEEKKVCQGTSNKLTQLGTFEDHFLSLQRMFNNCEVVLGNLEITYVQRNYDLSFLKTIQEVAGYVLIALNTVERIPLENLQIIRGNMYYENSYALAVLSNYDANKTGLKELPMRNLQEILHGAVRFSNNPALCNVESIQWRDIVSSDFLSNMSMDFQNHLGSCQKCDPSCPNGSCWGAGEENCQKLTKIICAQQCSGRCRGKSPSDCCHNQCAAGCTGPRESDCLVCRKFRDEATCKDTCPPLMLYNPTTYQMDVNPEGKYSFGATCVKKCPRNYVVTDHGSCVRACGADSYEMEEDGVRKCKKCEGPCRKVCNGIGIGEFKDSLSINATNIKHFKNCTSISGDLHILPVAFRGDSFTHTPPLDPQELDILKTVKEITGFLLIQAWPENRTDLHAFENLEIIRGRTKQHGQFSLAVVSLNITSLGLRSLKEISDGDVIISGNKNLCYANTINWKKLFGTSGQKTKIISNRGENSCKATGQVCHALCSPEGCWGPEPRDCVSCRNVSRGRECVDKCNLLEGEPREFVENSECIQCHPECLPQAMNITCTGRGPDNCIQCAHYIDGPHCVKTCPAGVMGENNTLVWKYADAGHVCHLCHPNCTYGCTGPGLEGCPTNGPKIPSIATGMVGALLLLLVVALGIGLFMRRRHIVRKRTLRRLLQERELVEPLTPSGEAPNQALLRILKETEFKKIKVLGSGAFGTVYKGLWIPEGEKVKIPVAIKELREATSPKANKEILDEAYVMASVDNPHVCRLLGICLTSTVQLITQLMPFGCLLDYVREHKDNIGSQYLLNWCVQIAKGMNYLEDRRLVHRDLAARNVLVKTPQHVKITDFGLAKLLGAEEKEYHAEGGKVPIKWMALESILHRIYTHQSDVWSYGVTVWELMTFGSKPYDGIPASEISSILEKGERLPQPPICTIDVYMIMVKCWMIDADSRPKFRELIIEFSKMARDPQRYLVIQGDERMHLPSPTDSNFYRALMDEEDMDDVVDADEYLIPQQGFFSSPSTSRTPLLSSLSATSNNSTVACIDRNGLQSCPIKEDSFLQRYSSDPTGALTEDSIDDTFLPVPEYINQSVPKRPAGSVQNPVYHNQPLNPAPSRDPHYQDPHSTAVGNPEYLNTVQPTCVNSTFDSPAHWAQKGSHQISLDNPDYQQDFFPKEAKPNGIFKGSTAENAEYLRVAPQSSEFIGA
Description: (§2) The enzyme inhibition assay for the tested molecules was performed at BPS Bioscience Corporation, San Diego, CA, USA. The following materials served as the enzyme sources, Poly (Glu, Tyr) sodium salt (4:1, Glu:Tyr) (Sigma#P7244) served as the standardized substrate, and the Kinase-Glo Plus Luminescence kinase assay kit (Promega # V3772) was used. […] Glo Plus luminescence kinase assay kits. The assays were performed using Kinase-Glo Plus luminescence (Promega Corporation, Madison, WI, USA).
(§3) The tested molecules 9, 20, and indurbin were diluted to 100 µL in DMSO (10%), and 5 µL of the solution was added to a 50-µL enzyme reaction until the final concentration of DMSO was 1% in all of reactions. The enzymatic reactions were conducted at 30 °C for 40 min. The reaction mixture contained enzyme substrate and respective kinases. After the enzymatic reaction, 50 µL of enzyme-Glo Plus luminescence […] assay solution (Promega) was added to each reaction, and the plate was incubated for 5 min at room temperature. The luminescence signal was measured using a BioTek Synergy 2 microplate reader. The luminescence data were analyzed using the computer software GraphPad Prism. The difference between luminescence intensities in the absence of enzyme (Lut) and in the presence of enzyme (Luc) was defined as 100% activity (Lut − Luc). […] The IC50 value was determined using GraphPad Prism software. […]
(§4) Glo Plus luminescence kinase assay kits were used in these assays. […] The assay measures kinase activity by quantitating the amount of ATP remaining in the solution following kinase reaction. […] After the enzymatic reaction, 50 µL of Kinase-Glo Plus Luminescence kinase assay solution (Promega) was added to each reaction, and the plate was incubated for 5 min at room temperature. The luminescence signal was measured using a BioTek Synergy 2 microplate reader. […] The luminescence data were analyzed using the Graphpad Prism software.

VEGFR-2 = molecular target: T2, VEGFR-2 (Homo sapiens, UniProt P35968); experiment: Kinase-Glo Plus luminescence kinase inhibition assay, VEGFR-2; type: biochemical; conditions: 10 µM ATP, 30 °C, 40 min; mean ± SEM
T2 construct: purchased BPS Bioscience 40301
T2 sequence (P35968 20-1356): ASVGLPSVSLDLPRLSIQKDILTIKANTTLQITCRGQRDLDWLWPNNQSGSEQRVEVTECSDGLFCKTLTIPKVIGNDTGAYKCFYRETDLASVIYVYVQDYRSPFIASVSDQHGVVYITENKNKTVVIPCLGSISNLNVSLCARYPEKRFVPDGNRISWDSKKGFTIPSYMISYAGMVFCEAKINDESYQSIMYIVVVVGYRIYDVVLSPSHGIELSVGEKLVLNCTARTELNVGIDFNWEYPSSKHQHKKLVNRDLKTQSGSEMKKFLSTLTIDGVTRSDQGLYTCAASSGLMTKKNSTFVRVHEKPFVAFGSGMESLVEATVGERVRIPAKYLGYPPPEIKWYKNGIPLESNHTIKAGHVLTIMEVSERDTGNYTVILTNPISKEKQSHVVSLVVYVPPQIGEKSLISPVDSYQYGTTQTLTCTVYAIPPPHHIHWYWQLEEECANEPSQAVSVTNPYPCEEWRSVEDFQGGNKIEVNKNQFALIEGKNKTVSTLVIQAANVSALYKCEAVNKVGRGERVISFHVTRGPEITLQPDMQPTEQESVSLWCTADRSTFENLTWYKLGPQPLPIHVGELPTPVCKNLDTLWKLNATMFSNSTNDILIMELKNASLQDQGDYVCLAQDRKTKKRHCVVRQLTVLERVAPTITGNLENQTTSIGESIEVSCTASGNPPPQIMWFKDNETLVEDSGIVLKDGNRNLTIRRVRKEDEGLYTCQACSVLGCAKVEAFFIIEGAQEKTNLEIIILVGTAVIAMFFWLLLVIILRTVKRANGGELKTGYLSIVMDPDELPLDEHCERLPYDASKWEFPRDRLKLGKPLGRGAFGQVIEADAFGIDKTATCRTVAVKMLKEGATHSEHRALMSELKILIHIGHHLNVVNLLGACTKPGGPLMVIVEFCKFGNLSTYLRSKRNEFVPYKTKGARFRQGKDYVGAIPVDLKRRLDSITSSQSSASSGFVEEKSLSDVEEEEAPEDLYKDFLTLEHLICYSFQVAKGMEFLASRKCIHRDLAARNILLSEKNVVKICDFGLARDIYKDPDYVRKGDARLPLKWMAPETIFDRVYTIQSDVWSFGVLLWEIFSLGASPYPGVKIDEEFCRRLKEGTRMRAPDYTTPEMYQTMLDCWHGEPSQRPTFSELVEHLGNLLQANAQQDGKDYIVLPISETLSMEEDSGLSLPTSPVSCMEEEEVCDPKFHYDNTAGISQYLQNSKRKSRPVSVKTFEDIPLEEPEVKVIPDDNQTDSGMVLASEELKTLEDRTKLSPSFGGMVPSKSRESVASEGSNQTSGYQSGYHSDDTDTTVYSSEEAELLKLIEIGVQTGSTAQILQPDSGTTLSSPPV
Description: as §2, §3, §4

CDK-4 = molecular target: T3, CDK-4 (Homo sapiens, UniProt P11802); experiment: Kinase-Glo Plus luminescence kinase inhibition assay, CDK-4; type: biochemical; conditions: 10 µM ATP, 30 °C, 40 min; mean ± SEM
T3 construct: purchased BPS Bioscience 79674
T3 sequence (P11802 whole entry): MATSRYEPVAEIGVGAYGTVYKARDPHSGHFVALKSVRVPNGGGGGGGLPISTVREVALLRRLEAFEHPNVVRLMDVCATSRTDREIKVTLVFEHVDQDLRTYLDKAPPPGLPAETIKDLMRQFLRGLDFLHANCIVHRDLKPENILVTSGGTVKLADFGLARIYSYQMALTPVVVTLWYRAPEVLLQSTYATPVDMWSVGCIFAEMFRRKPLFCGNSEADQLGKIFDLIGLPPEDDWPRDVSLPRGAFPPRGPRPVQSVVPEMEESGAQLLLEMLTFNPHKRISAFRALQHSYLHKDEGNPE
T3 sequence (P30281 whole entry partner): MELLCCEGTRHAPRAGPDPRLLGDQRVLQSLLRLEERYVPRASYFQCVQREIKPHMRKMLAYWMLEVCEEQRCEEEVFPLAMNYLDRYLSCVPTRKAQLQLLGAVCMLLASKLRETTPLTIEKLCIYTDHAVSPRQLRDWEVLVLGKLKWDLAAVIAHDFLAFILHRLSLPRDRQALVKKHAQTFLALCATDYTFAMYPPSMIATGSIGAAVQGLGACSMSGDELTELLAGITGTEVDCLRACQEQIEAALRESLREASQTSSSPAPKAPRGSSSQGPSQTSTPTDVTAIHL
Description: as §2, §3, §4

CDK-2 = molecular target: T4, CDK-2 (Homo sapiens, UniProt P24941); experiment: Kinase-Glo Plus luminescence kinase inhibition assay, CDK-2; type: biochemical; conditions: 10 µM ATP, 30 °C, 40 min; mean ± SEM
T4 construct: purchased BPS Bioscience 41101
Description: as §2
The tested molecules 9, 20, and indurbin were diluted to 100 µL in DMSO (10%), and 5 µL of the solution was added to a 50-µL enzyme reaction until the final concentration of DMSO was 1% in all of reactions. The enzymatic reactions were conducted at 30 °C for 40 min. The reaction mixture contained enzyme substrate and respective kinases. After the enzymatic reaction, 50 µL of enzyme-Glo Plus luminescence […] assay solution (Promega) was added to each reaction, and the plate was incubated for 5 min at room temperature. The luminescence signal was measured using a BioTek Synergy 2 microplate reader. The luminescence data were analyzed using the computer software GraphPad Prism. The difference between luminescence intensities in the absence of enzyme (Lut) and in the presence of enzyme (Luc) was defined as 100% activity (Lut − Luc). The values of enzyme activity percentages versus five concentrations of the small molecule were then plotted using a non-linear regression analysis of the sigmoidal dose–response curve. The IC50 value was determined using GraphPad Prism software. All experiments were repeated three times (Table S3).
Glo Plus luminescence kinase assay kits were used in these assays. The assay was done at Bioscience Laboratory BPS, California, USA. The assay measures kinase activity by quantitating the amount of ATP remaining in the solution following kinase reaction. The luminescent signal from the assay was correlated with the amount of ATP present and inversely correlated with kinase activity. […] All of the enzymatic reactions were conducted at 30 °C for 40 min. The reaction mixture contained 40 mM Tris, pH 7.4, 10 mM MgCl2, 0.1 mg/mL BSA, 1 mM DTT, 10 µM ATP, Kinase substrate, and VEGFR-2, EFGR, CDK-2 and CDK-4 enzymes. After the enzymatic reaction, 50 µL of Kinase-Glo Plus Luminescence kinase assay solution (Promega) was added to each reaction, and the plate was incubated for 5 min at room temperature. The luminescence signal was measured using a BioTek Synergy 2 microplate reader. Kinase activity assays were performed in triplicate for each concentration. The luminescence data were analyzed using the Graphpad Prism software.

HepG2 cells = test system: HepG2 cells; parameters: method as in PMID 34208562; conditions: relative to sunitinib; cited from earlier work

SMILES	viability at 1.25 µM (MCF-7 cells)	viability at 2.5 µM (MCF-7 cells)	viability at 5 µM (MCF-7 cells)	viability at 10 µM (MCF-7 cells)	viability at 20 µM (MCF-7 cells)	viability at 40 µM (MCF-7 cells)	viability at 80 µM (MCF-7 cells)	viability at 160 µM (MCF-7 cells)	IC50 (MCF-7 cells)	viability at 1.25 µM (HepG-2 cells)	viability at 2.5 µM (HepG-2 cells)	viability at 5 µM (HepG-2 cells)	viability at 10 µM (HepG-2 cells)	viability at 20 µM (HepG-2 cells)	viability at 40 µM (HepG-2 cells)	viability at 80 µM (HepG-2 cells)	viability at 160 µM (HepG-2 cells)	IC50 (HepG-2 cells)	further results
Cc1ccc2c(c1)C(=Nc1ccc(-c3nc4ccccc4c(=O)[nH]3)cc1)C(=O)N2 [Compound 23, 2-[4-(5-Methyl-2-oxo-1,2-dihydro-indol-3-ylideneamino)-phenyl]-3H-quinazolin-4-one]	101 ± 7.9%	91.5 ± 6.5%	78.8 ± 6.4%	65.8 ± 5.6%	40.9 ± 4.6%	26.9 ± 3%	12 ± 1.3%	12 ± 1.6%	15.3 ± 0.23 µM	81.5 ± 7.5%	75.3 ± 6.8%	64.8 ± 6%	50.2 ± 4.4%	39.1 ± 3.6%	28.7 ± 2.6%	9.5 ± 0.6%	4.5 ± 0.3%	38.4 ± 2.71 µM	
COc1ccc2c(c1)C(=Nc1ccc(-c3nc4ccccc4c(=O)[nH]3)cc1)C(=O)N2 [Compound 24, 2-[4-(5-Methoxy-2-oxo-1,2-dihydro-indol-3-ylideneamino)-phenyl]-3H-quinazolin-4-one]	104 ± 8.4%	97.9 ± 7.7%	90.8 ± 7%	80 ± 6.9%	61.3 ± 4.7%	29.6 ± 2.6%	11.1 ± 1.4%	5.92 ± 0.5%	18.5 ± 0.96 µM	99.4 ± 8.2%	95.5 ± 7.3%	88.5 ± 7%	79.6 ± 6.9%	62.1 ± 5.7%	49.5 ± 3.6%	23.9 ± 2.4%	10.4 ± 1.1%	32.7 ± 2.93 µM	
O=C1Nc2ccccc2/C1=C1/Nc2ccccc2C1=O [Ind, Indirubin, reference compound]									6.12 ± 0.35 µM									6.92 ± 0.65 µM	IC50 (EGFR): 175 ± 18.3 nM; IC50 (VEGFR-2): 126 ± 20 nM; IC50 (CDK-4): 23.6 ± 2.15 nM; IC50 (CDK-2): 45.6 ± 2.24 nM
Cc1cc(C)c(/C=C2\C(=O)Nc3ccccc32)[nH]1 [Semaxanib]																			fold more cytotoxic activity than sunitinib (HepG2 cells): 3 fold

From PMC11901902, “Design, Synthesis, and Cytotoxicity Evaluation of Novel Indolin-2-One Based Molecules on Hepatocellular Carcinoma HepG2 Cells as Protein Kinase Inhibitors” (Molecules, 2025)
